Here are results for 14 compounds from paper PMC9181924, “Antiproliferative and Proapoptotic Effects of Phenanthrene Derivatives Isolated from Bletilla striata on A549 Lung Cancer Cells” (Molecules, 2022).

Where “and” joins values, the source holds several entries; their conditions need not be identical. Equal values may be shown once. Read-outs that look alike come from different tables or passages of the source.

For data set [1], the system named is A549 cells. Kind of data set: MTT cytotoxicity assay on A549 cells. As to conditions: mean ± SD, n = 3, read-out: IC50, cytotoxicity against A549 cells. Format: cell-based, human. An excerpt:
(§1) The purity of the tested compounds was more than 98%. The cytotoxic effects of isolated phenanthrenes on A549 and BEAS-2B cells were examined by MTT experiments as described in our previous report.

The test system of data set [2] is A549 cells. Kind of data set: Cell cycle analysis by flow cytometry. Format: cell-based, human. The conditions noted are these: 48 h; for percentage of G0/G1 phase cells / percentage of S phase cells: Figure 3C; for percentage of G2/M phase cells: untreated control 7.41 ± 0.79%. As for the experimental part: According to the manufacture’s instructions, the cells were treated with compound 1 (3.13, 6.25, and 12.5 μM) for 48 h. Then, they were cultured with 500 μL staining solution (RNase A:PI = 1:9) for 1 h at room temperature without light after fixation with 70% pre-chilled ethanol for 2 h. The DNA content was instantly detected with a BD FACSCanto II flow cytometer (BD Biosciences, Franklin Lakes, NJ, USA).
A general note: Flow cytometry measures light scatter and fluorescence of single cells or particles in a stream.

For data set [3], the system named is Akt. The data set can be described thus: Western blot, Akt phosphorylation in A549 cells. As to conditions: A549, 3.13, 6.25, and 12.5 µM, 48 h; p < 0.05 at 3.13 μM, p < 0.01 at 6.25 and 12.5 μM vs control. Format: cell-based, human. The procedure: (§2) SDS–PAGE and PVDF membranes were used to separate and transfer the protein, respectively. […] The membranes were washed with TBST and incubated with an HRP-conjugated secondary antibody for 1 h at 37 °C. Finally, the protein bands were detected with a Tanon 5200 chemiluminescent imaging system (Tanon, Shanghai, China).
In general terms: A western blot detects proteins with antibodies after separation by electrophoresis.

The subject of data set [4] is ERK1/2. The data set can be described thus: Western blot, ERK1/2 phosphorylation in A549 cells. Format: cell-based, human. As to conditions: A549, 3.13, 6.25, and 12.5 µM, 48 h; p < 0.05 at 3.13 μM, p < 0.01 at 6.25 and 12.5 μM vs control. As for the experimental part:
as §2

Data set [5] relates to A549 cells. Kind of data set: Apoptosis by flow cytometry (Annexin V/PI). Format: cell-based, human. The conditions noted are these: 48-h treatment, control 1.21 ± 0.37%. The procedure: Quadrants 2 (Annexin V+/PI+) and 3 (Annexin V+/PI−) pointed to the percentage of apoptotic cells. As for the control group, the apoptosis rate was only 1.21 ± 0.37%. […] The data disclosed that compound 1 greatly promoted the apoptosis of A549 cells, especially in the high-concentration group (12.5 µM).
The A549 cells were treated with compound 1 (3.13, 6.25, and 12.5 μM), and the cell apoptosis was detected by flow cytometry assay as described in our previous report.

Data set [6] deals with A549 cells. Kind of data set: Wound healing assay. Format: cell-based, human. As to conditions: 24 h, control 56.46 ± 4.46%. The procedure: Cells were placed in 6-well plates for the wound healing test. The scratches were formed using a sterile 200-µL pipette tip when the cells treated with compound 1 (3.13, 6.25, and 12.5 μM) had grown to 90% confluence. After a 24-h incubation, the images were obtained with the Leica microscope and the scratch area was calculated with the ImageJ.

Data set [7] can be described thus: MTT cytotoxicity assay on BEAS-2B cells. Format: cell-based. As to conditions: BEAS-2B cells (normal human lung cells), BEAS-2B normal human lung cells, read-out: IC50, cytotoxic effect on BEAS-2B cells.
Text: as §1
For orientation: Formazan colour is commonly taken as a measure of viable cells.

Data set [8] deals with MEK1/2. The data set can be described thus: Western blot, MEK1/2 phosphorylation in A549 cells. The class given is cell-based, human. As to conditions: A549, 3.13, 6.25, and 12.5 μM, 48 h; p < 0.01 vs control. As for the experimental part: as §2
Data set [9] deals with A549 cells. The data set can be described thus: EdU proliferation experiment. The class given is cell-based, human. The conditions noted are these: 48 h, control 100%. As for the experimental part: The cells were digested by trypsin and cultivated in 96-well plates (3.5 × 10^3 cells per well) for 24 h. They were incubated with compound 1 (3.13, 6.25, and 12.5 μM) for 48 h. Next, prepared EdU-labeling solution (10 µM) was used to stain the cells in an incubator at 37 °C for 2 h. The cells were fixed for 15 min with 4% cold paraformaldehyde. After that, Triton X-100 (0.3%) and Click-iT reaction cocktail were successively used to handle cells. Finally, DAPI staining was applied to the cells to counterstain them. A Leica DMI3000B inverted fluorescence microscope (Leica, Wetzlar, Germany) was used to capture the fluorescent images. In addition, to count the cells, ImageJ software (version 1.8.0) (National Institutes of Health, Bethesda, MD, USA) was used. EdU positive cells (%) = (green EdU-stained cells/blue DAPI-stained cells) × 100.

Data set [10] relates to Bax. Kind of data set: Western blot, Bax expression in A549 cells. The class given is cell-based, human. As to conditions: A549, 6.25 and 12.5 μM, 48 h; p < 0.01 vs control. As for the experimental part:
as §2

Data set [11] deals with A549 cells. The data set can be described thus: Transwell migration assay. The class given is cell-based, human. As to conditions: 24 h, control 100%. As for the experimental part: The migratory effect of compound 1 (3.13, 6.25, and 12.5 μM) on A549 cells was further detected by using transwell chambers. Briefly, the cells treated with compound 1 were placed into the upper wells, while the medium with 10% FBS was added to the bottom wells. After a 24-h incubation, non-migrated cells were cleaned up, and the migrated cells were fixed for 30 min with 4% paraformaldehyde and dyed by 0.1% crystal violet. The images and the cell numbers were obtained by the Leica microscope and ImageJ, respectively.

In data set [12] the test system is Bcl-2. The data set can be described thus: Western blot, Bcl-2 expression in A549 cells. The conditions noted are these: A549, 3.13, 6.25, and 12.5 μM, 48 h; p < 0.01 vs control. Format: cell-based, human. The procedure:
as §2

On to `COc1cc(O)c(Cc2ccc(O)cc2)c2c1-c1ccc(Oc3c(O)cc(OC)c4c3CCc3cc(O)ccc3-4)cc1CC2` [Compound 8, blestanol C], for which the IC50 was 8.62 ± 0.64 µM in data set [1] (A549 cells) and less than 10 µM in data set [1] (Homo sapiens, A549, A549 cells).

Regarding `COc1cc(O)c(O)c2c1-c1ccc(O)cc1CC2` [Compound 10, 4-methoxy-9,10-dihydrophenanthrene-1,2,7-triol], in data set [1] (Homo sapiens, A549, A549 cells), the IC50 is 16.3 ± 2.22 µM.

As for `COc1cc(O)c(-c2c(O)cc3c(c2OC)-c2ccc(O)cc2CC3)c2c1-c1ccc(O)cc1CC2` [Compound 3, blestrianol A], in data set [1] (Homo sapiens, A549, A549 cells), the IC50 is 10.5 ± 2.55 µM.

On to `COc1ccc(Cc2c(O)cc(O)c3c2CCc2cc(OC)ccc2-3)cc1` [Compound 13, pleioanthrenin], for which the concentration for half-maximal inhibition (IC50) was 9.52 ± 0.47 µM in data set [1] (A549 cells) and less than 10 µM in [1] (Homo sapiens, A549, A549 cells).

Consider `COc1cc(O)c(-c2c(O)cc(OC)c3c2ccc2cc(O)ccc23)c2ccc3cc(O)ccc3c12` [Compound 6, blestriarene C], for which the IC50 in data set [1] (A549 cells) is 9.45 ± 0.52 µM; in [1] (Homo sapiens, A549, A549 cells) it was less than 10 µM.

Consider `COc1cc(O)c(Cc2ccc(O)cc2)c2c1-c1ccc(O)cc1CC2` [Compound 12, 1-(p-hydroxybenzyl)-4-methoxy-9,10-dihydrophenanthrene-2,7-diol], for which the IC50 in data set [1] (Homo sapiens, A549, A549 cells) amounted to 33.3 ± 0.49 µM.

On to `COc1c(O)ccc2c1ccc1c(-c3c(O)cc(OC)c4c3ccc3cc(O)ccc34)c(O)cc(OC)c12` [Compound 5, bleformin G], for which the IC50 in [1] (Homo sapiens, A549, A549 cells) was greater than 100 µM.

Regarding `COc1cc(O)cc2c1-c1ccc(O)cc1CC2` [Compound 9, 2,7-dihydroxy-4-methoxy-9,10-dihydrophenanthrene], the IC50 in [1] (Homo sapiens, A549, A549 cells) was 51.5 ± 1.87 µM.

Consider `COc1cc(O)cc2c1-c1ccc(O)c(-c3c(O)cc(OC)c4c3CCc3cc(O)ccc3-4)c1CC2` [Compound 1, 4,5′-dimethoxy-9,9′,10,10′-tetrahydro-[1,1′-biphenanthrene]-2,2′,7,7′-tetraol], for which the “percentage of G0/G1 phase cells” value is reported as 76.42% in data set [2] (A549, 3.13 μM); 70.16% in data set [2] (A549, 6.25 μM); 50.11% in data set [2] (A549, 12.5 μM). The “percentage of S phase cells” value in [2] (A549, 3.13 μM) is listed as 11.73%; in [2] (A549, 6.25 μM), 15.31%; in data set [2] (A549, 12.5 μM), 22.81%. The “percentage of G2/M phase cells” value in [2] (A549, 3.13 μM) was 11.85 ± 1.26% and 11.85%; in data set [2] (A549, 6.25 μM), 14.53 ± 1.75% and 14.53%; in [2] (A549, 12.5 μM), 27.08 ± 2.65% and 27.08%. For the same compound, in [3], the “expression ratio of p-Akt/Akt” value is recorded as “significantly suppressed”. Further, the “expression ratio of p-ERK/ERK” value in data set [4] was “significantly suppressed”. Also, the “apoptosis rate (Annexin V+/PI+ and Annexin V+/PI−)” value in data set [5] (A549, 3.13 µM) was 2.57 ± 0.53%; in data set [5] (A549, 6.25 µM), 12.25 ± 2.21%; in [5] (A549, 12.5 µM), 49.79 ± 8.54%. Moreover, the “migration rate (wound healing)” value in [6] (A549, 3.13 µM) stood at 31.10 ± 2.92%; in data set [6] (A549, 6.25 µM) it was 15.23 ± 1.81%; in [6] (A549, 12.5 µM) it was 11.01 ± 1.81%. Also, the half-inhibitory concentration (IC50) is 15.2 ± 1.62 µM in data set [7]; 6.86 ± 0.71 µM in data set [1] (A549 cells); less than 10 µM in [1] (Homo sapiens, A549, A549 cells). Moreover, the “expression ratio of p-MEK/MEK” value in data set [8] is on record as “significantly suppressed”. The “percentage of EdU-positive cells” value is listed as 67.66 ± 4.51% in data set [9] (A549, 3.13 μM); 56.33 ± 4.50% in data set [9] (A549, 6.25 μM); 34.01 ± 4.58% in data set [9] (A549, 12.5 μM). Besides, in [10], the Bax protein levels entry is recorded as “increased”. The “migrated cell numbers (transwell)” value is recorded as 72.09 ± 4.65% in data set [11] (A549, 3.13 µM); 29.45 ± 2.92% in data set [11] (A549, 6.25 µM); 10.19 ± 1.25% in data set [11] (A549, 12.5 µM). Also, the Bcl-2/Bax ratio result in data set [12] was “reduced”. Besides, the Bcl-2 protein levels entry in data set [12] is on record as “significantly decreased”.

As for `COc1cc(O)c(Cc2ccc(O)cc2)c2c1-c1cc(Cc3ccc(O)cc3)c(O)cc1CC2` [Compound 14, 1,6-bis(p-hydroxybenzyl)-4-methoxy-9,10-dihydrophenanthrene-2,7-diol], the IC50 in data set [1] (Homo sapiens, A549, A549 cells) stood at 12 ± 0.79 µM.

As to `COc1cc2ccc3cc(O)ccc3c2c(OC)c1O` [Compound 16, 3,7-dihydroxy-2,4-dimethoxyphenanthrene], the concentration for half-maximal inhibition (IC50) in data set [1] (Homo sapiens, A549, A549 cells) was 63.8 ± 4.67 µM.

Take `COc1cc(O)c(-c2c(O)cc3c(c2OC)-c2ccc(O)c(Cc4ccc(O)cc4)c2CC3)c2c1-c1ccc(O)cc1CC2` [Compound 2, 4,4′-dimethoxy-8′-(p-hydroxybenzyl)-9,9′,10,10′-tetrahydro-[1,3′-biphenanthrene]-2,2′,7,7′-tetraol]: the half-inhibitory concentration (IC50) is 8.75 ± 0.61 µM in [1] (A549 cells) and less than 10 µM in data set [1] (Homo sapiens, A549, A549 cells).

As for `COc1cc(O)cc2c1-c1cc(-c3c(O)cc(OC)c4c3CCc3cc(O)ccc3-4)c(O)cc1CC2` [Compound 4, gymconopin C], the half-inhibitory concentration (IC50) is 9.91 ± 0.68 µM in [1] (A549 cells) and less than 10 µM in data set [1] (Homo sapiens, A549, A549 cells).

As for `COc1cc(O)c(Cc2ccc(O)cc2)c2ccc3cc(O)ccc3c12` [Compound 17, 1-(p-hydroxybenzyl)-4-methoxyphenanthrene-2,7-diol], the IC50 in [1] (Homo sapiens, A549, A549 cells) was 32.6 ± 2.33 µM.

By IC50 is commonly meant the concentration needed to halve the response being measured.
